Earlier results, collected in patent publication US9399756B2, “Functionalized fullerenes as a biomass stimulant and a life extension agent” (UNIVERSITY OF FLORIDA RESEARCH FOUNDATION, INC., priority 2010, dated 2016).

Tests used:
mice [1] = conditions: injected; Zhou et al. 2009
mice [2] = conditions: Quick et al., Neurobiology of Aging 2008

| Substance | hair growth in mice (mice [1]) | lifespan of mice (mice [2]) |
| --- | --- | --- |
| (H23C11CO2)2CC60C(CO2CH2CO2H)2 | may stimulate hair growth in mice | – |
| e,e,e-C60(C(CO2H)2)3 | – | may extend the lifespan of mice |
